According to ChEMBL document CHEMBL4052736, “Synthesis, antioxidant, antifungal, molecular docking and ADMET studies of some thiazolyl hydrazones” (Bioorg Med Chem Lett, 2017):
Converted amounts (≈) assume the structure as drawn.

Key:
Format in all cases: functional
[1] = test system: Aspergillus flavus; test: Antifungal activity against Aspergillus flavus after 24 hrs by well diffusion method
[2] = test system: Aspergillus niger; test: Antifungal activity against Aspergillus niger after 24 hrs by well diffusion method
[3] = test system: Candida albicans; test: Antifungal activity against Candida albicans after 24 hrs by well diffusion method
[4] = test system: Aspergillus flavus; test: Antifungal activity against Aspergillus flavus assessed as zone of inhibition at 25 ug/ml measured after 24 hrs by well diffusion method; conditions: read-out: IZ
[5] = test system: Aspergillus flavus; test: Antifungal activity against Aspergillus flavus assessed as zone of inhibition at 50 ug/ml measured after 24 hrs by well diffusion method; conditions: read-out: IZ
[6] = test system: Aspergillus niger; test: Antifungal activity against Aspergillus niger assessed as zone of inhibition at 25 ug/ml measured after 24 hrs by well diffusion method; conditions: read-out: IZ
[7] = test system: Aspergillus niger; test: Antifungal activity against Aspergillus niger assessed as zone of inhibition at 50 ug/ml measured after 24 hrs by well diffusion method; conditions: read-out: IZ
[8] = test system: Aspergillus niger; test: Antifungal activity against Aspergillus niger assessed as zone of inhibition at 100 ug/ml measured after 24 hrs by well diffusion method; conditions: read-out: IZ
[9] = test system: Candida albicans; test: Antifungal activity against Candida albicans assessed as zone of inhibition at 100 ug/ml measured after 24 hrs by well diffusion method; conditions: read-out: IZ
[10] = test system: Candida albicans; test: Antifungal activity against Candida albicans assessed as zone of inhibition at 50 ug/ml measured after 24 hrs by well diffusion method; conditions: read-out: IZ
[11] = test system: Candida albicans; test: Antifungal activity against Candida albicans assessed as zone of inhibition at 25 ug/ml measured after 24 hrs by well diffusion method; conditions: read-out: IZ
[12] = test system: Aspergillus flavus; test: Antifungal activity against Aspergillus flavus assessed as zone of inhibition at 100 ug/ml measured after 24 hrs by well diffusion method; conditions: read-out: IZ
[13] = Antioxidant activity assessed as DPPH free radical scavenging activity at 20 ug/ml after 15 mins by spectrophotometric method
[14] = Antioxidant activity assessed as DPPH free radical scavenging activity at 40 ug/ml after 15 mins by spectrophotometric method
[15] = Antioxidant activity assessed as DPPH free radical scavenging activity at 60 ug/ml after 15 mins by spectrophotometric method
[16] = Antioxidant activity assessed as DPPH free radical scavenging activity at 80 ug/ml after 15 mins by spectrophotometric method
[17] = Antioxidant activity assessed as DPPH free radical scavenging activity at 100 ug/ml after 15 mins by spectrophotometric method
[18] = Antioxidant activity assessed as DPPH free radical scavenging activity measured after 15 mins by spectrophotometric method
[19] = Antioxidant activity assessed as H2O2 free radical scavenging activity at 20 ug/ml after 10 to 15 mins by spectrophotometric analysis
[20] = Antioxidant activity assessed as H2O2 free radical scavenging activity at 40 ug/ml after 10 to 15 mins by spectrophotometric analysis
[21] = Antioxidant activity assessed as H2O2 free radical scavenging activity at 60 ug/ml after 10 to 15 mins by spectrophotometric analysis
[22] = Antioxidant activity assessed as H2O2 free radical scavenging activity at 80 ug/ml after 10 to 15 mins by spectrophotometric analysis
[23] = Antioxidant activity assessed as H2O2 free radical scavenging activity at 100 ug/ml after 10 to 15 mins by spectrophotometric analysis
[24] = Antioxidant activity assessed as H2O2 free radical scavenging activity by spectrophotometric analysis

Structure (SMILES) | MIC [3] | zone of inhibition at 25 µg/mL [4] | zone of inhibition at 50 µg/mL [5] | zone of inhibition at 25 µg/mL [6] | zone of inhibition at 50 µg/mL [7] | zone of inhibition at 100 µg/mL [8] | zone of inhibition at 100 µg/mL [9] | zone of inhibition at 50 µg/mL [10] | zone of inhibition at 25 µg/mL [11] | zone of inhibition at 100 µg/mL [12] | inhibition [13] | inhibition [14] | inhibition [15] | inhibition [16] | inhibition [17] | IC50 [18] | inhibition [19] | inhibition [20] | inhibition [21] | inhibition [22] | also measured
OC(Cn1cncn1)(Cn1cncn1)c1ccc(F)cc1F [FLUCONAZOLE] | < 3.12 µg/mL | 15 mm | 18 mm | 14 mm | 20 mm | 25 mm | 28 mm | 22 mm | 15 mm | 20 mm |  |  |  |  |  |  |  |  |  |  | MIC [1]: < 3.12 µg/mL; MIC [2]: < 3.12 µg/mL
COC(=O)c1cc(-c2csc(N/N=C/c3ccc(Cl)cc3Cl)n2)ccc1OCc1ccccc1 | 6.25 µg/mL (≈ 12.2 µM) | 6 mm | 6 mm | 6 mm | 6 mm | 6 mm | 13 mm | 10 mm | 12 mm | 14 mm | 19.2% | 37.2% | 41.9% | 45.5% | 56.1% | 88.844 µg/mL (≈ 173 µM) | 58.9% | 63.5% | 66.3% | 71.8% | inhibition [23]: 75%; IC50 [24]: 57.873 µg/mL (≈ 113 µM)
COc1ccc(-c2csc(N/N=C/c3ccc(Cl)cc3Cl)n2)cc1 | 25 µg/mL (≈ 66.1 µM) | 6 mm | 6 mm | 6 mm | 6 mm | 6 mm | 7 mm | 6 mm | 6 mm | 6 mm | 65.5% | 69.5% | 86.9% | 90.6% | 93.3% | 34.966 µg/mL (≈ 92.4 µM) | 78.1% | 79.7% | 82.8% | 84.2% | inhibition [23]: 87.5%; IC50 [24]: 40.405 µg/mL (≈ 107 µM)
Fc1ccc(-c2csc(N/N=C/c3ccc(Cl)cc3Cl)n2)cc1 | 6.25 µg/mL (≈ 17.1 µM) | 8 mm | 10 mm | 6 mm | 6 mm | 6 mm | 13 mm | 11 mm | 10 mm | 12 mm | 90.7% | 93.3% | 94.6% | 95.5% | 96% | 27.139 µg/mL (≈ 74.1 µM) | 88.4% | 90% | 92.4% | 94% | MIC [1]: 12.5 µg/mL (≈ 34.1 µM); inhibition [23]: 95.6%; IC50 [24]: 35.539 µg/mL (≈ 97 µM)
Cc1ccc(-c2csc(N/N=C/c3ccc(Cl)cc3Cl)n2)cc1 | 25 µg/mL (≈ 69 µM) | 6 mm | 10 mm | 6 mm | 6 mm | 6 mm | 8 mm | 6 mm | 6 mm | 16 mm | 86% | 86.2% | 93.3% | 90.7% | 95.1% | 30.791 µg/mL (≈ 85 µM) | 76.2% | 80.4% | 83.2% | 84.2% | MIC [1]: 25 µg/mL (≈ 69 µM); inhibition [23]: 85.3%; IC50 [24]: 40.004 µg/mL (≈ 110 µM)
C(=N\Nc1nc(-c2ccccc2)cs1)/c1cccs1 | 12.5 µg/mL (≈ 43.8 µM) | 8 mm | 12 mm | 6 mm | 8 mm | 10 mm | 12 mm | 10 mm | 6 mm | 15 mm | 95.5% | 95.8% | 97.6% | 97.1% | 96.8% | 26.008 µg/mL (≈ 91.1 µM) | 87.5% | 90% | 91% | 92.4% | MIC [2]: 25 µg/mL (≈ 87.6 µM); inhibition [23]: 94%; IC50 [24]: 31.03 µg/mL (≈ 109 µM)
